Reference: US20050209278A1, “Piperidinyl- and piperazinyl-sulfonylmethyl hydroxamic acids and their use as protease inhibitors” (priority 2002, published 2005)
Where two headings read alike, the source gives them in different places.

Key:
MMP-1 = target: T1, MMP-1 (Homo sapiens, UniProt P03956); assay: In vitro MMP inhibition, Ki determination (fluorogenic substrate II); type: biochemical; conditions: read-out: MMP-1 Ki
T1 construct: made in house; host or cells: MMP-1-transfected HT-1080 cells (spent media)
T1 sequence (P03956 100-469): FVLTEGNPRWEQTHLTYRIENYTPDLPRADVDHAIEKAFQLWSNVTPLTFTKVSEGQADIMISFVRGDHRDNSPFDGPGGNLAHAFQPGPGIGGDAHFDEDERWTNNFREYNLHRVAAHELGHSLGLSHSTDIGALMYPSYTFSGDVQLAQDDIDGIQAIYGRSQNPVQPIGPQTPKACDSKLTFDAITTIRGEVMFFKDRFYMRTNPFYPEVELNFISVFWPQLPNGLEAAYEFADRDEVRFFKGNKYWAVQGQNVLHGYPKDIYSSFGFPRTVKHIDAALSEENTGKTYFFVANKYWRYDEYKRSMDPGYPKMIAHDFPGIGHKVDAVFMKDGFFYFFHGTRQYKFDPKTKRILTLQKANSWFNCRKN

MMP-9 = target: T2, MMP-9 (Homo sapiens, UniProt P14780); assay: as above; type: biochemical
T2 construct: made in house; host or cells: MMP-9-transfected HT1080 cells (spent media)
T2 sequence (P14780 107-707 limits assumed): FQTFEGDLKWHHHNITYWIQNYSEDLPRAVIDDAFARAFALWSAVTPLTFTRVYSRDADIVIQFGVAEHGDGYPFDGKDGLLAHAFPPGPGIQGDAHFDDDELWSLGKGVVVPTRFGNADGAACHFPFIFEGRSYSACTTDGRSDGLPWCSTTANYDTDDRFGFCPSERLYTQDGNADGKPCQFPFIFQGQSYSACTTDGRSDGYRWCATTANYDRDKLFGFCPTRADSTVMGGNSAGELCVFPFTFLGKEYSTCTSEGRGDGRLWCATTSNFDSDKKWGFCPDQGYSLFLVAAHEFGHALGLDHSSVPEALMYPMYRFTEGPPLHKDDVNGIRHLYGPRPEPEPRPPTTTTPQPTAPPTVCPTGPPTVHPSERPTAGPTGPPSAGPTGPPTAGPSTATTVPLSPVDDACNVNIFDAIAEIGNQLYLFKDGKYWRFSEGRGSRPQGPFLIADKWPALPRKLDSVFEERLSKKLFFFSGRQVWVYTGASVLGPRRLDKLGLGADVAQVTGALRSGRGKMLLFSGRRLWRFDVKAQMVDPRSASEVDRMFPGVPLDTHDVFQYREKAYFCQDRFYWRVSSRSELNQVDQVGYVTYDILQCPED
Summary of the method: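 HT1080-derived MMP-9, activated with APMA, trypsin or MMP-3, incubated 1 hr at room temperature with inhibitor and 4 μM fluorogenic substrate II (at or below Km) in pH 7.5 Tris/NaCl/CaCl2 buffer; ex 330/em 420 nm. Ki from Morrison-equation regression, without substrate correction.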

SMILES | Ki (MMP-1; value outside parentheses) | Ki (MMP-9; value outside parentheses) | Ki (MMP-1; value not in parenthesis) | Ki (MMP-9; value not in parenthesis)
CCCCOc1ccc(N2CCN(S(=O)(=O)C3(C(=O)NO)CCN(C(=O)COC)CC3)CC2)cc1 [Example 268] | 9320 nM | 1.08 nM |  | 
CCCCOc1ccc(N2CCN(S(=O)(=O)C3(C(=O)NO)CCOCC3)CC2)nc1 [Example 100] |  |  | 1600 nM | 0.3 nM
CCCCOc1ccc(N2CCN(S(=O)(=O)C3(C(=O)NO)CCN(C(=O)C(C)(C)C)CC3)CC2)cc1 [Example 267] | > 10000 nM | 2.54 nM |  | 
CCCCOc1ccc(N2CCN(S(=O)(=O)C3(C(=O)NO)CCN(C=O)CC3)CC2)cc1 [Example 269] | 6400 nM | 0.953 nM |  | 
CCCCOc1ccc(N2CCN(S(=O)(=O)C3(C(=O)NO)CCN(C)CC3)CC2)cc1 [Example 280] | > 10000 nM | 3.61 nM |  | 
CCCCOc1ccc(N2CCN(S(=O)(=O)C3(C(=O)NO)CCN(C(=O)C4CC4)CC3)CC2)cc1 [Example 260] | > 10000 nM | 0.946 nM |  | 
CCCCCc1ccc(N2CCN(S(=O)(=O)C3(C(=O)NO)CCN(C4CC4)CC3)CC2)cc1 [Example 272] | > 10000 nM | 0.542 nM |  | 
COCCOc1ccc(N2CCN(S(=O)(=O)C3(C(=O)NO)CCN(C4CC4)CC3)CC2)cc1F [Example 297] | > 10000 nM | 19.5 nM |  | 
CCCCOc1ccc(N2CCN(S(=O)(=O)C3(C(=O)NO)CCN(C(=O)c4ccccn4)CC3)CC2)cc1 [Example 277] | > 10000 nM | 0.95 nM |  | 
CCCCOc1ccc(N2CCN(S(=O)(=O)C3(C(=O)NO)CCN(c4ccc(O)nn4)CC3)CC2)cc1 [Example 283] | 9790 nM | 0.69 nM |  | 
O=C(NO)C1(S(=O)(=O)N2CCN(c3ccc(OC4CCC4)c(F)c3)CC2)CCOCC1 [Example 73] |  |  | > 10000 nM | 7.97 nM
COCCN1CCC(C(=O)NO)(S(=O)(=O)N2CCC(c3ccc(CCCC(F)(F)F)cc3)CC2)CC1 [Example 310] | > 10000 nM | 0.346 nM |  | 
CCCCOc1ccc(N2CCN(S(=O)(=O)C3(C(=O)NO)CCN(C(=O)c4ccncc4)CC3)CC2)cc1 [Example 259] | > 10000 nM | 1.35 nM |  | 
O=C(NO)C1(S(=O)(=O)N2CCN(c3ccc(OCCCCF)cc3)CC2)CCOCC1 [Example 89] |  |  | > 10000 nM | 2.23 nM
CCCCOc1ccc(N2CCN(S(=O)(=O)C3(C(=O)NO)CCNCC3)CC2)cc1 [Example 276] | > 10000 nM | 9.39 nM |  | 
CCc1ccc(N2CCN(S(=O)(=O)C3(C(=O)NO)CCCC3)CC2)nc1 [Example 261] | 632 nM | 1.53 nM |  | 
CCCCc1ccc(C2CCN(S(=O)(=O)C3(C(=O)NO)CCOCC3)CC2)nc1 [Example 307] | 6810 nM |  |  | 
CCCCOc1ccc(N2CCN(S(=O)(=O)C3(C(=O)NO)CCN(C(=O)CN)CC3)CC2)cc1 [Example 292] | > 10000 nM | 3.51 nM |  | 
CCCCOc1ccc(N2CCN(S(=O)(=O)C3(C(=O)NO)CCN(C(=O)c4cccnc4)CC3)CC2)cc1 [Example 266] | > 10000 nM | 0.957 nM |  | 
CCCCOc1ccc(N2CCN(S(=O)(=O)C3(C(=O)NO)CCN(Cc4ccco4)CC3)CC2)cc1 [Example 252] | > 10000 nM | 1.43 nM |  | 
CCCCOc1ccc(N2CCN(S(=O)(=O)C3(C(=O)NO)Cc4ccccc4C3)CC2)nc1 [Example 85] |  |  | 4770 nM | 1.17 nM
CCCCCc1ccc(C2CCN(S(=O)(=O)C3(C(=O)NO)CCOCC3)CC2)nc1 [Example 305] | 6700 nM | 0.133 nM |  | 
CCCCOc1ccc(N2CCN(S(=O)(=O)C3(C(=O)NO)CCN(C(=O)CC)CC3)CC2)cc1 [Example 274] | > 10000 nM | 1.66 nM |  | 
C#CCN1CCC(C(=O)NO)(S(=O)(=O)N2CCN(c3ccc(OCCCC)cc3)CC2)CC1 [Example 303] | > 10000 nM | 1.48 nM |  | 
O=C(NO)C1(S(=O)(=O)N2CCN(c3ccc(SC(F)(F)F)cc3)CC2)CCS(=O)(=O)CC1 [Example 258] | > 10000 nM | 457 nM |  | 

SMILES | Ki (MMP-1; value outside parentheses) | Ki (MMP-9; value outside parentheses) | Ki (MMP-1; value not in parenthesis) | Ki (MMP-9; value not in parenthesis)
CCCCOc1ccc(N2CCN(S(=O)(=O)C3(C(=O)NO)CCOCC3)CC2)c(F)c1 [Example 90] |  |  | > 10000 nM | 2.15 nM
CCCCOc1ccc(N2CCN(S(=O)(=O)C3(C(=O)NO)CCN(C(=O)CC(F)(F)F)CC3)CC2)cc1 [Example 265] | > 10000 nM | 2.14 nM |  | 
C#CCOC(=O)N1CCC(C(=O)NO)(S(=O)(=O)N2CCN(c3ccc(OCCCC)cc3)CC2)CC1 [Example 98] |  |  | > 10000 nM | 1.24 nM
CCCCOc1ccc(N2CCN(S(=O)(=O)C3(C(=O)NO)CCN(C(=O)N(C)C)CC3)CC2)cc1 [Example 254] | > 10000 nM | 0.63 nM |  | 
O=C(NO)C1(S(=O)(=O)N2CCN(c3ccc(OCCCC(F)(F)F)cn3)CC2)CCOCC1 [Example 83] |  |  | 2850 nM | 4.21 nM
CCCCOc1ccc(N2CCN(S(=O)(=O)C3(C(=O)NO)CCN(c4nc5ccccc5s4)CC3)CC2)cc1 [Example 93] |  |  | > 10000 nM | 60.1 nM
CC(C)CCOc1ccc(N2CCN(S(=O)(=O)C3(C(=O)NO)CCOCC3)CC2)cc1 [Example 279] | > 10000 nM | 3.07 nM |  | 
O=C(NO)C1(S(=O)(=O)N2CCC(c3ccc(Br)cn3)CC2)CCOCC1 [Example 306] | 602 nM | 1.03 nM |  | 
CCCCOc1ccc(N2CCN(S(=O)(=O)C3(C(=O)NO)CCN(C(=O)C(C)C)CC3)CC2)cc1 [Example 273] | > 10000 nM | 1.21 nM |  | 
CCCCOc1ccc(N2CCN(S(=O)(=O)C3(C(=O)NO)CCN(C4CC4)CC3)CC2)cc1 [Example 301] | > 10000 nM | 9.11 nM |  | 
CCCCOc1ccc(N2CCN(S(=O)(=O)C3(C(=O)NO)CCN(C(=O)c4ccccc4)CC3)CC2)cc1 [Example 255] | > 10000 nM | 2.54 nM |  | 
CCN1CCC(C(=O)NO)(S(=O)(=O)N2CCN(c3ccc(OCCCC(F)(F)F)cc3)CC2)CC1 [Example 78] |  |  | > 10000 nM | 22.8 nM
COCCN1CCC(C(=O)NO)(S(=O)(=O)N2CCC(c3ccc(CCC(F)(F)C(F)(F)F)cc3)CC2)CC1 [Example 312] | > 10000 nM | 0.24 nM |  | 
CCCCOc1ccc(N2CCN(S(=O)(=O)C3(C(=O)NO)CCN(CC4CC4)CC3)CC2)cc1 [Example 298] | > 10000 nM | 2.99 nM |  | 
CCCCOc1ccc(N2CCN(S(=O)(=O)C3(C(=O)NO)CCN(c4ccc(C(F)(F)F)cn4)CC3)CC2)cc1 [Example 257] | > 10000 nM | 37 nM |  | 
CCCCc1ccc(N2CCN(S(=O)(=O)C3(C(=O)NO)CCN(c4cccnc4)CC3)CC2)nc1 [Example 96] |  |  | > 10000 nM | 0.21 nM
Cc1cc(N2CCN(S(=O)(=O)C3(C(=O)NO)CCOCC3)CC2)ccc1OC(C)C [Example 299] | > 10000 nM | 43.6 nM |  | 
CCCCOc1ccc(N2CCN(S(=O)(=O)C3(C(=O)NO)CCN(C(N)=O)CC3)CC2)cc1 [Example 253] | > 10000 nM | 1.57 nM |  | 
O=C(NO)C1(S(=O)(=O)N2CCN(c3ccc(-c4ccccc4)cc3)CC2)CCOCC1 [Example 76] |  |  | 1340 nM | 0.5 nM
O=C(NO)C1(S(=O)(=O)N2CCN(c3ccc(C(F)(F)F)cn3)CC2)CCOCC1 [Example 94] |  |  | 767 nM | 14.3 nM
COCCN1CCC(C(=O)NO)(S(=O)(=O)N2CCN(c3ccc(OCCCCF)cc3)CC2)CC1 [Example 88] |  |  | > 10000 nM | 2.18 nM
CCCCOc1ccc(N2CCN(S(=O)(=O)C3(C(=O)NO)CCN(c4ccc(Cl)cc4)CC3)CC2)cc1 [Example 251] | > 10000 nM | 57.4 nM |  | 
CCCCOc1ccc(N2CCN(S(=O)(=O)C3(C(=O)NO)CCN(c4ccc(C)nn4)CC3)CC2)cc1 [Example 275] | > 10000 nM | 0.807 nM |  | 
O=C(NO)C1(S(=O)(=O)N2CCN(c3ccc(OCCCC(F)(F)F)cc3F)CC2)CCOCC1 [Example 81] |  |  | > 10000 nM | 29.2 nM
CCCCc1ccc(N2CCN(S(=O)(=O)C3(C(=O)NO)CCN(CCOC)CC3)CC2)nc1 [Example 270] | > 10000 nM | 0.205 nM |  | 
